According to PubChem BioAssay (NCI):
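Protocol summary: plate cells (96-well), add compound at 5 concentrations, incubate 48 h, interpolate endpoints linearly. TGI: total growth inhibition.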

Key:
Experiment in all cases: inhibition of tumour cell growth, NCI panel, 48 h
[1] = system: HCC-2998 colon
[2] = system: HT29 colon
[3] = system: SNB-19 CNS
[4] = system: UO-31 renal
[5] = system: SK-MEL-28 melanoma
[6] = system: SK-OV-3 ovarian
[7] = system: UACC-257 melanoma
[8] = system: OVCAR-3 ovarian
[9] = system: TK-10 renal
[10] = system: NCI-H460 lung
[11] = system: IGROV1 ovarian
[12] = system: A549 NSCLC
[13] = system: SF-268 CNS
[14] = system: M14 melanoma
[15] = system: BT-549 breast
[16] = system: HS 578T breast

Row | Structure (SMILES) | TGI [1] | TGI [2] | TGI [3] | TGI [4] | TGI [5] | TGI [6] | TGI [7] | TGI [8] | TGI [9] | TGI [10] | TGI [11] | TGI [12] | TGI [13] | TGI [14] | TGI [15] | TGI [16]
1 | COc1cc([C@@H]2c3cc4c(cc3[C@@H](NCc3ccccc3F)C3COC(=O)[C@@H]32)OCO4)cc(OC)c1O (stereo not given in full) | 28.3 µM | 25.5 µM | 60.5 µM | 17.3 µM | 46.6 µM | 9.45 µM | 37.2 µM | 40.9 µM | 81.4 µM | 13.2 µM | 20.5 µM | 15.1 µM | > 100 µM | 13.6 µM |  | 
2 | CC(=O)NC(CCCNC(=O)N(C)N=O)C(=O)NCc1ccccc1 (stereo not given) | > 100 µM | > 100 µM | > 100 µM | > 100 µM | > 100 µM | > 100 µM | > 100 µM | > 100 µM | > 100 µM | > 100 µM | > 100 µM | > 100 µM | > 100 µM | > 100 µM |  | 
3 | CC(=O)C1C(=O)C(=O)N(c2ccc([N+](=O)[O-])cc2[N+](=O)[O-])C1=O (stereo not given) | > 100 µM | > 100 µM | > 100 µM | > 100 µM | > 100 µM | > 100 µM | > 100 µM | > 100 µM | > 100 µM | > 100 µM | > 100 µM | > 100 µM | > 100 µM | > 100 µM | > 100 µM | > 100 µM
4 | Cc1ccc(C(=O)NC2CCCCC2)cc1N=NN(C)C | > 100 µM | > 100 µM | > 100 µM | > 100 µM | > 100 µM |  | > 100 µM | > 100 µM | > 100 µM | > 100 µM | > 100 µM | > 100 µM | > 100 µM | > 100 µM |  | 
5 | COC(=O)/C=C1\CCC2[C@@H](C(=O)CC3[C@]2(C)CCC[C@@]3(C)C(=O)OC)C1C (stereo not given in full) | 97.9 µM | 61 µM | > 100 µM | 44.4 µM | 31.8 µM | 72.4 µM | 33.9 µM | 89 µM | 53.4 µM | 32.9 µM | 57 µM | 52 µM | 52.1 µM | 34.2 µM |  | 
6 | Cc1ccc(NC(=O)C2C3C=CC(O3)C2C(=O)O)cc1 (stereo not given) | > 100 µM | 39.8 µM | > 100 µM | > 100 µM | > 100 µM | > 100 µM | > 100 µM | > 100 µM | > 100 µM | > 100 µM | > 100 µM | > 100 µM | > 100 µM | > 100 µM |  | 
7 | O=C(O)CCC(NC(=O)c1ccc(Oc2nc3ccccc3nc2C(=O)O)cc1)C(=O)O (stereo not given) | > 100 µM | > 100 µM | > 100 µM | > 100 µM | > 100 µM | > 100 µM | > 100 µM | > 100 µM | > 100 µM | > 100 µM | > 100 µM | > 100 µM | > 100 µM | > 100 µM | > 100 µM | > 100 µM
8 | CCc1cccc(C(C)C)c1NC(=O)/C(=N\NC(N)=O)C(C(=O)OC)c1cnc2ccccc2n1 (stereo not given) | > 100 µM | > 100 µM | > 100 µM | > 100 µM | > 100 µM | > 100 µM | 94.4 µM | 60.3 µM | > 100 µM | 80.7 µM | > 100 µM | 76.5 µM | > 100 µM | > 100 µM |  | 
